{"source": "paper PMC7047268", "about": "(ACS Central Science, 2020)", "key": {"5-HT2C [1]": {"molecular_target": "T1, 5-HT2C (Homo sapiens, UniProt P28335)", "T1 sequence (P28335 33-458)": "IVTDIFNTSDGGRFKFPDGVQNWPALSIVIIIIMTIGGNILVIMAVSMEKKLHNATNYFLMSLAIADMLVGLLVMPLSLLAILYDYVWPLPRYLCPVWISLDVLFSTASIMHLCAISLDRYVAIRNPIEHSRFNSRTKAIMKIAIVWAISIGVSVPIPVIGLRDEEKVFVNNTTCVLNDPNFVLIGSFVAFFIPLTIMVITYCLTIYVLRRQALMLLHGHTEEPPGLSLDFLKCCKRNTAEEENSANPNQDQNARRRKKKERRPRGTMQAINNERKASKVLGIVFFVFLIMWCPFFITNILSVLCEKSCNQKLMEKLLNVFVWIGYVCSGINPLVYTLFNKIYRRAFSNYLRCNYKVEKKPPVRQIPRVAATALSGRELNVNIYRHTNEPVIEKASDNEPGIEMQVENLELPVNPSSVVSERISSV", "assay": "cell-based", "format": "cell-based"}, "5-HT2B": {"molecular_target": "5-HT2B (Homo sapiens, UniProt P41595)", "sequence (P41595 whole entry)": "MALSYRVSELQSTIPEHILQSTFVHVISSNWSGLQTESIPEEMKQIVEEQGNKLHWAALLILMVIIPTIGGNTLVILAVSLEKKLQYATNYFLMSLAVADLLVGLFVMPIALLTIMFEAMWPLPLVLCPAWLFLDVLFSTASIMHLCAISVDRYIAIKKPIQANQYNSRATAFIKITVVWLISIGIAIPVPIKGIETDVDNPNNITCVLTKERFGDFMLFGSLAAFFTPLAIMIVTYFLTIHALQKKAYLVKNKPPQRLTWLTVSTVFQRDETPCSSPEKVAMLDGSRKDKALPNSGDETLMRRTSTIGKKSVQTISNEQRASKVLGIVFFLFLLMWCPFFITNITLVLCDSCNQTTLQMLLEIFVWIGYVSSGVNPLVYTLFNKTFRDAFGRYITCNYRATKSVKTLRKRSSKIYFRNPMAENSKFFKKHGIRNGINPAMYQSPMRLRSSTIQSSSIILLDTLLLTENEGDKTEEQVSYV", "assay": "cell-based", "format": "cell-based", "conditions": "for Gq agonism for 5-HT2B: agonist mode"}, "5-HT2A": {"molecular_target": "5-HT2A (Homo sapiens, UniProt P28223)", "sequence (P28223 whole entry)": "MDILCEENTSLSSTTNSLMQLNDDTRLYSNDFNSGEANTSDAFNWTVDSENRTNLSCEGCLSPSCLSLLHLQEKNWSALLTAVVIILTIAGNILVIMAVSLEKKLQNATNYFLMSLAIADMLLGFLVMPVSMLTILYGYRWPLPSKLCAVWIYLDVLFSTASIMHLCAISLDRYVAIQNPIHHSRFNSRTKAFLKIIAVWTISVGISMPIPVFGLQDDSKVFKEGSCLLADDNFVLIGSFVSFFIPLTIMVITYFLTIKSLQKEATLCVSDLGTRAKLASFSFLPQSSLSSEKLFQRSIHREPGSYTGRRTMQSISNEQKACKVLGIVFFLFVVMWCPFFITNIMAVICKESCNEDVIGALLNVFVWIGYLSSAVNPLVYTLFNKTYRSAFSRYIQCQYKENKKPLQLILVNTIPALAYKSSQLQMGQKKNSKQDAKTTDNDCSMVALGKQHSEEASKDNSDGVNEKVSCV", "format": "cell-based", "conditions": "for Gq agonism for 5-HT2A: agonist mode"}, "[2]": {"system": "wild-type or mutant 5-HT2C", "assay": "Radiolabeled ligand binding assay, 3H-mesulergine, transfected CHO cells", "design": "species or system human"}, "[3]": {"molecular_target": "T2, human 5-HT2C and its mutants (Homo sapiens, UniProt P28335)", "T2 sequence (P28335 33-458)": "T1 sequence (P28335 33-458)", "assay": "Tango β-arrestin2 recruitment assay, HTLA cells", "format": "cell-based", "conditions": "for β-arrestin2 recruitment agonist activity (Tango): wild-type 5-HT2C, agonist mode"}, "5-HT2C [4]": {"molecular_target": "T1, 5-HT2C", "format": "cell-based"}, "[5]": {"system": "overnight fasting male C57BL/6J mice", "assay": "Acute feeding suppression", "format": "in vivo", "conditions": "intraperitoneal; 1857 30 mg/kg, lorcaserin 10 mg/kg; vs vehicle"}, "[6]": {"system": "diet-induced obesity (DIO) mice", "assay": "DIO mice feeding suppression", "format": "in vivo"}, "[7]": {"conditions": "30 mg/kg i.p. daily for 10 days"}, "[8]": {"conditions": "30 mg/kg i.p. daily for 10 days, vs vehicle"}, "[9]": {"conditions": "30 mg/kg i.p. daily, from day 5 until end of study"}}, "data": [{"compound": "COc1cc2c3c(c1OC)-c1ccccc1CC3NCC2", "note": "(centres unmarked) [Compound 15781, nornuciferine]", "values": [{"measurement": "EC50", "setting": "5-HT2C [1]", "result": 653, "unit": "nM"}, {"measurement": "Emax", "setting": "5-HT2C [1]; HEK-293T, read-out: Emax relative to 5-HT", "result": 65.6, "unit": "%"}, {"measurement": "IC50", "setting": "5-HT2B", "result": "> 10000", "unit": "nM"}, {"measurement": "Gq agonism for 5-HT2B", "setting": "5-HT2B", "result": "none of them exhibited measurable Gq agonism"}, {"measurement": "Gq agonism for 5-HT2A", "setting": "5-HT2A", "result": "none of them exhibited measurable Gq agonism"}]}, {"compound": "(R)-asimilobine [Compound 1857]", "values": [{"measurement": "in vitro potency for 5-HT2C activation lower than that of lorcaserin", "setting": "5-HT2C [1]", "result": "2 orders of magnitude"}, {"measurement": "Emax relative to 5-HT", "setting": "5-HT2C [1]; Gq-mediated calcium signaling at 5-HT2C", "result": 86.1, "unit": "%"}, {"measurement": "Gq agonism for 5-HT2B", "setting": "5-HT2B", "result": "none of them exhibited measurable Gq agonism"}, {"measurement": "Gq agonism for 5-HT2A", "setting": "5-HT2A", "result": "none of them exhibited measurable Gq agonism"}, {"measurement": "enhancement of binding", "setting": "[2]", "result": 6, "unit": "fold"}, {"measurement": "antagonism of β-arrestin signaling (Tango)", "setting": "[3]; against agonist ergotamine", "result": "acts as an antagonist"}, {"measurement": "β-arrestin2 recruitment agonist activity (Tango)", "setting": "[3]", "result": "no β-arrestin recruitment activity"}, {"measurement": "β-arrestin2 recruitment agonist activity (BRET)", "setting": "5-HT2C [4]", "result": "does not possess agonist activity"}, {"measurement": "antagonism of β-arrestin2 association (BRET)", "setting": "5-HT2C [4]; agonist lorcaserin (4 μM)", "result": "acts as an antagonist for β-arrestin2 association"}, {"measurement": "acute food intake suppression", "setting": "[5]", "result": "reduced food intake from 30 min to 4 h postinjection"}, {"measurement": "blood glucose relative to vehicle", "setting": "[6]; [7]", "result": "−20.9", "unit": "%"}, {"measurement": "liver TC and TG levels", "setting": "[6]; [7]", "result": "decreased liver TC and TG levels"}, {"measurement": "serum total cholesterol (TC) relative to vehicle", "setting": "[6]; [7]", "result": "−7.9", "unit": "%"}, {"measurement": "serum total triglyceride (TG) relative to vehicle", "setting": "[6]; [7]", "result": "unchanged"}, {"measurement": "total organ weight of epididymal white adipose tissue (WAT)", "setting": "[6]; [8]", "result": "−29.3", "unit": "%"}, {"measurement": "total organ weight of inguinal WAT", "setting": "[6]; [8]", "result": "−46.4", "unit": "%"}, {"measurement": "body weight in DIO mice", "setting": "[6]; [9]", "result": "weight loss"}, {"measurement": "food intake in DIO mice", "setting": "[6]; [9]", "result": "Significant reduction of food intake"}]}, {"compound": "COc1cc2c3c(c1OC)-c1ccccc1C[C@H]3N(C)CC2", "note": "[Compound 15856, Nuciferine]", "values": [{"measurement": "antagonism of Gq-mediated activity at 5-HT2C", "setting": "5-HT2C [1]", "result": "sub-micromolar potency"}, {"measurement": "antagonism of Gq-mediated activity at 5-HT2B", "setting": "5-HT2B", "result": "sub-micromolar potency"}, {"measurement": "antagonism of Gq-mediated activity at 5-HT2A", "setting": "5-HT2A", "result": "sub-micromolar potency"}]}, {"compound": "C[C@H]1CNCCc2ccc(Cl)cc21", "note": "[Lorcaserin, lorcaserin, reference compound]", "values": [{"measurement": "agonist efficacy class in G protein pathway at 5-HT2C", "setting": "5-HT2C [1]", "result": "full agonist"}, {"measurement": "β-arrestin2 recruitment agonist activity (Tango)", "setting": "[3]", "result": "full agonist"}, {"measurement": "acute food intake suppression", "setting": "[5]", "result": "suppressed food intake up to 2 h postinjection"}]}]}
